According to patent US10407445B2, “Hepatitis C virus inhibitors” (ENANTA PHARMACEUTICALS, INC., priority 2013, dated 2019):

System: HCV GT 2a-J6 replicon
Assay: HCV replicon assay, GT2a chimeric replicon expressing NS5A from GT2a strain J6
Assay type: cell-based
Details: Hepatitis C virus, 72 h, read-out: EC50 2a J6
Description: The activity of compounds was determined against HCV replicons representing genotypes (GT) 1a, 1b, 2a, and 3a. To generate stable Huh-7.5-based cell lines, HCV replicons were engineered to express the Renilla luciferase reporter (hRluc) fused to the neomycin phosphotransferase (Neo) gene. GT2a and GT3a HCV replicons were based on the JFH-1 subgenomic replicon (Kato et al. 2003 Gastroenterology, 125:1808-1817), in which the NS5A gene was replaced with that of strains J6 and S52 (GT2a and G3a, respectively). The activity of compounds against GT1a replicons encoding NS5A mutations (M28T, Q30R, L31M, Y93C, and Y93H) was also determined in a transient replication assay. The parental GT1a and GT2a replicons (pH/SG-Neo(L+I) and pSG-Neo-JFH1, respectively) were licensed from Apath LLC (Saint Louis, Mo.). The parental GT 1b replicon (pFKi389lucubineo_3_3′_ET) was licensed from ReBLikon GmbH (Germany). HCV replicons were constructed by standard molecular biology techniques described below. All replicon constructs were verified by restriction enzyme digestion and DNA sequencing.
The plasmid pSG-hRlucNeo-JFH1 was generated from pSG-Neo-JFH1 (Kato et al. 2003, Gastroentrology 125:1808-1817). A fragment containing the JFH-1 5′ NTR—hRluc-Neo gene and two unique restriction sites (AgeI and PmeI) was synthesized (Integrated DNA Technologies, Coralville, Iowa). The resulting synthetic plasmid was digested with AgeI and PmeI and the excised fragment (5′NTR-hRluc-Neo) was ligated into pSG-Neo-JFH1 digested with the same enzymes to generate pSG-hRlucNeo-JFH1. To allow expression of heterologous NS5A sequences, an NS5A shuttle vector was generated from pSG-Neo-JFH1, in which the entire coding sequence of NS5A plus the first eight codons of NS5B were replaced with an AfeI restriction site. This was done by Infusion cloning (Clontech, Mountain View, Calif.) from two PCR products that were generated using pSG-Neo-JFH1 as a template and the following primer pairs:
Underlined sequences denote regions of overlap necessary for Infusion cloning. Purified PCR products were cloned directly into an NsiI/SnaBI digested pSG-Neo-JFH1 following the manufacturer's instructions to generate pSG-Neo-JFH1-5Ashuttle. The 2023 base pair AgeI/PmeI fragment from pSG-hRlucNeo-JFH1 was then ligated into pSG-Neo-JFH1-5Ashuttle to generate pSG-hRlucNeo-JFH1-5Ashuttle. To generate the 2a-2a-(J6) and 2a-3a-(S52) NS5A chimeric replicons, the full length NS5A sequences from GT2a strain J6 (accession AF177036) and GT3a strain S52 (accession GU814263), with the addition of the first eight codons of JFH-1 NS5B (5′-TCCATGTCATACTCCTGGACCGGG-3′), were synthesized by GeneArt (Life Technologies, Carlsbad Calif.). J6 and S52 NS5A sequences were then PCR amplified from the synthetic clones using the appropriate forward primer:
Underlined sequences denote regions of overlap with pSG-hRlucNeo-JFH1-5Ashuttle necessary for Infusion cloning. Purified PCR products were directly cloned into AfeI-digested shuttle vector by Infusion cloning following the manufacturer's instructions.
Stable HCV replicon cell lines were grown in complete media (Dulbecco's modified Eagle medium [DMEM], 2 mM L-glutamine, 0.1 mM essential amino acids, 1 mM sodium pyruvate, 10% heat inactivated fetal bovine serum) with the addition 500 μg/ml […] (G418). Huh7-lunet cells were maintained in the same medium without the addition of G418. Cells were routinely passaged at a dilution of 1:4 two times a week. The assay medium for both luciferase reporter HCV replicon and cytotoxicity assays used phenol red-free DMEM and lacked G418. For each stable replicon assay, a sixteen point half-log dilution series of compound was stamped (0.5 ul compound per well) into three replica 384-well plates, to which cells were added directly (4000 cells/well). […]

Question: `COC(=O)N[C@H](C(=O)N1CC2(CCOCC2)C[C@H]1c1ncc(-c2ccc(-c3ccc4c(ccc5nc([C@@H]6CCCN6C(=O)[C@@H](NC(=O)OC)C(C)C)[nH]c54)c3)cc2)[nH]1)C(C)C` [Example 83] was tested. Which EC50 did it give?
Answer: 32 nM

Question: Which EC50 does the source give for `COC(=O)N[C@H](C(=O)N1C[C@]2(CCCOC2)C[C@H]1c1ncc(-c2ccc3cc4cc(-c5cnc([C@@H]6C[C@@H]7CCCC[C@@H]7N6C(=O)[C@@H](NC(=O)OC)C(C)C)[nH]5)ccc4cc3c2)[nH]1)C(C)C` [Compound 13] here?
Answer: 17 nM

Question: With `COC(=O)N[C@H](C(=O)N1C[C@@]2(CCCO2)C[C@H]1c1ncc(-c2ccc(-c3ccc4c(ccc5nc([C@@H]6CCCN6C(=O)[C@@H](NC(=O)OC)C(C)C)[nH]c54)c3)cc2)[nH]1)C(C)C` [Example 82] as the compound, how does the EC50 read?
Answer: 40 nM

Question: Which EC50 does the source give for `COC(=O)N[C@H](C(=O)N1[C@H](c2nc3ccc4cc(-c5ccc(-c6cnc([C@@H]7C[C@@]8(CCCOC8)CN7C(=O)[C@H](NC(=O)OC)C7C[C@@H](C)O[C@H](C)C7)[nH]6)cc5)ccc4c3[nH]2)C[C@@H]2CCCC[C@@H]21)C(C)C` (stereo in doubt) [Compound 39] here?
Answer: 41 nM

Question: For `COC(=O)N[C@H](C(=O)N1C[C@@]2(CCOC2)C[C@H]1c1ncc(-c2ccc(-c3ccc4c(ccc5nc([C@@H]6C[C@]7(CCOC7)CN6C(=O)[C@@H](NC(=O)OC)C(C)C)[nH]c54)c3)cc2)[nH]1)C(C)C` [Compound 49], which EC50 is on record?
Answer: 23 nM

Question: `COC(=O)N[C@H](C(=O)N1C[C@]2(CCCOC2)C[C@H]1c1ncc(-c2ccc3c(ccc4cc(-c5cnc([C@@H]6C[C@@H]7CCCC[C@@H]7N6C(=O)[C@@H](NC(=O)OC)C(C)C)[nH]5)ccc43)c2)[nH]1)C(C)C` [Compound 17] was tested. Which EC50 did it give?
Answer: 22 nM

Question: For `COC(=O)N[C@H](C(=O)N1CCC[C@H]1c1nc2ccc3cc(-c4ccc5c(ccc6nc([C@@H]7CCCN7C(=O)[C@@H](NC(=O)OC)C(C)C)[nH]c65)c4)ccc3c2[nH]1)C(C)C` [Example 101], which EC50 is on record?
Answer: 0.1 nM

Question: For `COC(=O)N[C@H](C(=O)N1C[C@]2(CCCOC2)C[C@H]1c1ncc(-c2ccc(-c3ccc4c(c3)OCc3nc([C@@H]5C[C@@H]6CCCC[C@@H]6N5C(=O)[C@@H](NC(=O)OC)C(C)C)[nH]c3-4)cc2)[nH]1)C(C)C` [Compound 42], which EC50 is on record?
Answer: 2 nM

Question: For `COC(=O)N[C@H](C(=O)N1C[C@]2(CCCOC2)C[C@H]1c1ncc(-c2ccc(-c3ccc4c(ccc5nc([C@@H]6C[C@@H]7C[C@@H]7N6C(=O)[C@@H](NC(=O)OC)C(C)C)[nH]c54)c3)cc2)[nH]1)C(C)C` [Compound 20], which EC50 is on record?
Answer: 23 nM

Question: For `COC(=O)N[C@H](C(=O)N1C[C@@]2(CCCOC2)C[C@H]1c1ncc(-c2ccc(-c3ccc4c(ccc5nc([C@@H]6CCCN6C(=O)[C@@H](NC(=O)OC)C(C)C)[nH]c54)c3)cc2)[nH]1)C(C)C` [Compound 27], which EC50 is on record?
Answer: 50 nM

Question: With `COC(=O)N[C@H](C(=O)N1C[C@@]2(CCCCO2)C[C@H]1c1nc(-c2ccc(-c3ccc4c(ccc5nc([C@@H]6CCCN6C(=O)[C@@H](NC(=O)OC)C(C)C)[nH]c54)c3)cc2)c[nH]1)C(C)C` [Example 3] as the compound, how does the EC50 read?
Answer: 267 nM

Question: How did the EC50 turn out when `COC(=O)N[C@H](C(=O)N1C[C@]2(CCCOC2)C[C@H]1c1ncc(-c2ccc3c(c2)COc2cc(-c4cnc([C@@H]5C[C@@H]6CCCC[C@@H]6N5C(=O)[C@@H](NC(=O)OC)C(C)C)[nH]4)ccc2-3)[nH]1)C(C)C` [Compound 15] was run?
Answer: 1 nM

Question: With `COC(=O)N[C@H](C(=O)N1C[C@]2(CCCOC2)C[C@H]1c1nc2ccc3cc(-c4ccc5c(ccc6nc([C@@H]7C[C@@H]8COC[C@@H]8N7C(=O)[C@@H](NC(=O)OC)C(C)C)[nH]c65)c4)ccc3c2[nH]1)C(C)C` [Compound 36] as the compound, how does the EC50 read?
Answer: 0.3 nM

Question: Which EC50 does the source give for `COC(=O)N[C@H](C(=O)N1C[C@]2(CCCO2)C[C@H]1c1ncc(-c2ccc(-c3ccc4c(ccc5nc([C@@H]6CCCN6C(=O)[C@@H](NC(=O)OC)C(C)C)[nH]c54)c3)cc2)[nH]1)C(C)C` [Example 81] here?
Answer: 45 nM

Question: For `COC(=O)N[C@H](C(=O)N1C[C@]2(CCCOC2)C[C@H]1c1ncc(-c2ccc(-c3ccc4c(c3)OCc3nc([C@@H]5CCCN5C(=O)[C@@H](NC(=O)OC)C(C)C)[nH]c3-4)cc2)[nH]1)C(C)C` [Compound 30], which EC50 is on record?
Answer: 1 nM

Question: How did the EC50 turn out when `COC(=O)N[C@H](C(=O)N1C[C@]2(CCCOC2)C[C@H]1c1ncc(-c2ccc(-c3ccc4c(c3)CCCc3nc([C@@H]5C[C@@H]6CCCC[C@@H]6N5C(=O)[C@@H](NC(=O)OC)C(C)C)[nH]c3-4)cc2)[nH]1)C(C)C` [Compound 40] was run?
Answer: 55 nM

Question: With `COC(=O)N[C@H](C(=O)N1C[C@]2(CCOC2)C[C@H]1c1ncc(-c2ccc(-c3ccc4c(ccc5nc([C@@H]6CCCN6C(=O)[C@@H](NC(=O)OC)C(C)C)[nH]c54)c3)cc2)[nH]1)C(C)C` [Compound 26] as the compound, how does the EC50 read?
Answer: 22 nM

Question: Which EC50 does the source give for `COC(=O)N[C@H](C(=O)N1CCC[C@H]1c1nc2ccc(C#Cc3ccc4c(ccc5nc([C@@H]6CCCN6C(=O)[C@@H](NC(=O)OC)C(C)C)[nH]c54)c3)cc2[nH]1)C(C)C` [Example 103] here?
Answer: 16 nM

Question: Which EC50 does the source give for `COC(=O)N[C@H](C(=O)N1C[C@]2(CCCCO2)C[C@H]1c1nc(-c2ccc(-c3ccc4c(ccc5nc([C@@H]6CCCN6C(=O)[C@@H](NC(=O)OC)C(C)C)[nH]c54)c3)cc2)c[nH]1)C(C)C` [Example 2] here?
Answer: 27 nM

Question: How did the EC50 turn out when `COC(=O)N[C@H](C(=O)N1CCC[C@H]1c1nc2c([nH]1)-c1ccc(-c3ccc4c(ccc5nc([C@@H]6C[C@@]7(CCCOC7)CN6C(=O)[C@@H](NC(=O)OC)C(C)C)[nH]c54)c3)cc1OC2)C(C)C` [Compound 25] was run?
Answer: 0.8 nM

Question: Which EC50 does the source give for `COC(=O)N[C@H](C(=O)N1CCC[C@H]1c1ncc(-c2ccc(-c3ccc4c(ccc5nc([C@@H]6CCCN6C(=O)[C@@H](NC(=O)OC)C(C)C)[nH]c54)c3)cc2)[nH]1)C(C)C` [Example 102] here?
Answer: 1 nM

Question: How did the EC50 turn out when `COC(=O)N[C@H](C(=O)N1CCC[C@H]1c1ncc(-c2ccc(-c3ccc4c(c3)OCc3nc([C@@H]5C[C@@]6(CCCOC6)CN5C(=O)[C@@H](NC(=O)OC)C(C)C)[nH]c3-4)cc2)[nH]1)C(C)C` [Compound 33] was run?
Answer: 1 nM

Question: How did the EC50 turn out when `COC(=O)N[C@H](C(=O)N1C[C@@]2(CCOC2)C[C@H]1c1ncc(-c2ccc(-c3ccc4c(ccc5nc([C@@H]6CCCN6C(=O)[C@@H](NC(=O)OC)C(C)C)[nH]c54)c3)cc2)[nH]1)C(C)C` [Compound 50] was run?
Answer: 13 nM
